Assay results as given in patent US11919901B2 (Syndax Pharmaceuticals, Inc., priority 2021, dated 2024).
pEC50, pKi: −log10 of the molar value.

Target: Menin-MLL (Homo sapiens (Human), UniProt O00255)
Assay: Determination of binding constants (Ki) to Menin-MLL (HTRF)
Conditions: HTRF, 0.25 nM H-FL-Menin, 3.2 nM FITC-MLL-4-43, 24 hr incubation; for pKi: read-out: Menin-MLL Ki HTRF Assay: Ki

Chain of Menin-MLL (O00255 whole entry): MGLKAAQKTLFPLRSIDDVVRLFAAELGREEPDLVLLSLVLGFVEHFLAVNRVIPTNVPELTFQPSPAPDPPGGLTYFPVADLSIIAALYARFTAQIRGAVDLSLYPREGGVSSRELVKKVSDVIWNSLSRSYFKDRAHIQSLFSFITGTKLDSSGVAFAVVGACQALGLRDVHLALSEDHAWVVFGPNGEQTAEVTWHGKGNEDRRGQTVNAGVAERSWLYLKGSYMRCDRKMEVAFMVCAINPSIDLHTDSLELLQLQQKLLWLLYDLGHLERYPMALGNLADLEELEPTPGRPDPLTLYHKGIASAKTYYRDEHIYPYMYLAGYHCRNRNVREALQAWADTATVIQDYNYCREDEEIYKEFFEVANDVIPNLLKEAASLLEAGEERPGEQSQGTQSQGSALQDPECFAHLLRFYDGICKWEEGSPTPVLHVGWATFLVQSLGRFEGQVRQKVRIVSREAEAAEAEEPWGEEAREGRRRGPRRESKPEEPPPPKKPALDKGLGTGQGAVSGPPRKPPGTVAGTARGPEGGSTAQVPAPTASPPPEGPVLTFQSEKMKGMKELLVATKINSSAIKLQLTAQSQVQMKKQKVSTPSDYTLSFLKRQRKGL

SMILES	pEC50	pKi
C[C@@H]1COC[C@@H](C)N1C(=O)c1cc(F)ccc1Oc1cncnc1N1CC2(CCN(C[C@@H]3CC[C@@H](NS(C)(=O)=O)CO3)CC2)C1 [Compound 28, N-((3R,6S)-6-((2-(5-(2-((3R,5R)-3,5-dimethylmorpholine-4-carbonyl)-4-fluorophenoxy)pyrimidin-4-yl)-2,7-diazaspiro[3.5]nonan-7-yl)methyl)tetrahydro-2H-pyran-3-yl)methanesulfonamide]	> 7.30	> 9.00
CCS(=O)(=O)N[C@@H]1CC[C@@H](CN2CCC3(CC2)CN(c2ncncc2Oc2ccc(F)cc2C(=O)N2[C@H](C)COC[C@H]2C)C3)OC1 [Compound 29]	> 7.30	> 9.00
CC(C)S(=O)(=O)N[C@@H]1CC[C@@H](CN2CCC3(CC2)CN(c2ncncc2Oc2ccc(F)cc2C(=O)N2[C@H](C)COC[C@H]2C)C3)OC1 [Compound 30]	> 7.30	> 9.00
C[C@@H]1COC[C@@H](C)N1C(=O)c1cc(F)ccc1Oc1cncnc1N1CC2(CCN(C[C@@H]3CC[C@@H](NS(=O)(=O)C4CC4)CO3)CC2)C1 [Compound 31, N-((3R,6S)-6-((2-(5-(2-((3R,5R)-3,5-dimethylmorpholine-4-carbonyl)-4-fluorophenoxy)pyrimidin-4-yl)-2,7-diazaspiro[3.5]nonan-7-yl)methyl)tetrahydro-2H-pyran-3-yl)cyclopropanesulfonamide]	> 7.30	> 9.00
C[C@@H]1COC[C@@H](C)N1C(=O)c1cc(F)ccc1Oc1cncnc1N1CC2(CCN(C[C@@H]3CC[C@@H](NS(=O)(=O)C4COC4)CO3)CC2)C1 [Compound 32]	> 7.30	> 9.00
CCS(=O)(=O)N[C@@H]1CC[C@@H](CN2CCC3(CC2)CN(c2ncncc2Oc2ccc(F)cc2C(=O)N(CCOC)C(C)C)C3)OC1 [Compound 35, 2-((4-(7-(((2S,5R)-5-(ethylsulfonamido)tetrahydro-2H-pyran-2-yl)methyl)-2,7-diazaspiro[3.5]nonan-2-yl)pyrimidin-5-yl)oxy)-5-fluoro-N-isopropyl-N-(2-methoxyethyl)benzamide]	> 7.30	> 9.00
CCS(=O)(=O)N[C@@H]1CC[C@@H](CN2CCC3(CC2)CN(c2ncncc2Oc2ccc(F)cc2C(=O)N2[C@H](C)CCC[C@@H]2C)C3)OC1 [Compound 36, N-((3R,6S)-6-((2-(5-(2-((2S,6R)-2,6-dimethylpiperidine-1-carbonyl)-4-fluorophenoxy)pyrimidin-4-yl)-2,7-diazaspiro[3.5]nonan-7-yl)methyl)tetrahydro-2H-pyran-3-yl)ethanesulfonamide]	> 7.30	> 9.00
CCCNC(=O)N[C@@H]1CC[C@@H](CN2CCC3(CC2)CN(c2ncncc2Oc2ccc(F)cc2C(=O)N(CC)C(C)C)C3)OC1 [Compound 38, N-ethyl-5-fluoro-N-isopropyl-2-((4-(7-(((2S,5R)-5-(3-propylureido)tetrahydro-2H-pyran-2-yl)methyl)-2,7-diazaspiro[3.5]nonan-2-yl)pyrimidin-5-yl)oxy)benzamide]	7.00 to 7.30	8.82 to 9.00
CCNC(=O)N[C@@H]1CC[C@@H](CN2CCC3(CC2)CN(c2ncncc2Oc2ccc(F)cc2C(=O)N(CC)C(C)C)C3)OC1 [Compound 39, N-ethyl-2-((4-(7-(((2S,5R)-5-(3-ethylureido)tetrahydro-2H-pyran-2-yl)methyl)-2,7-diazaspiro[3.5]nonan-2-yl)pyrimidin-5-yl)oxy)-5-fluoro-N-isopropylbenzamide]	> 7.30	> 9.00
CCN(C(=O)c1cc(F)ccc1Oc1cncnc1N1CC2(CCN(C[C@@H]3CC[C@@H](NC(=O)NCC(F)F)CO3)CC2)C1)C(C)C [Compound 41, 2-((4-(7-(((2S,5R)-5-(3-(2,2-difluoroethyl)ureido)tetrahydro-2H-pyran-2-yl)methyl)-2,7-diazaspiro[3.5]nonan-2-yl)pyrimidin-5-yl)oxy)-N-ethyl-5-fluoro-N-isopropylbenzamide]	7.00 to 7.30	> 9.00
CCN(C(=O)c1cc(F)ccc1Oc1cncnc1N1CC2(CCN(C[C@@H]3CC[C@@H](NC(=O)NCC4CC4)CO3)CC2)C1)C(C)C [Compound 42, 2-((4-(7-(((2S,5R)-5-(3-(cyclopropylmethyl)ureido)tetrahydro-2H-pyran-2-yl)methyl)-2,7-diazaspiro[3.5]nonan-2-yl)pyrimidin-5-yl)oxy)-N-ethyl-5-fluoro-N-isopropylbenzamide]	< 7.00	8.82 to 9.00
CCS(=O)(=O)N[C@@H]1CC[C@@H](CN2CCC3(CC2)CN(c2ncncc2Oc2ccc(F)cc2C(=O)N(C(C)C)[C@@H]2CCOC2)C3)OC1 [Compound 46, 2-((4-(7-(((2S,5R)-5-(ethylsulfonamido)tetrahydro-2H-pyran-2-yl)methyl)-2,7-diazaspiro[3.5]nonan-2-yl)pyrimidin-5-yl)oxy)-5-fluoro-N-isopropyl-N-((R)-tetrahydrofuran-3-yl)benzamide]	> 7.30	> 9.00
CCS(=O)(=O)N[C@@H]1CC[C@@H](CN2CCC3(CC2)CN(c2ncncc2Oc2ccc(F)cc2C(=O)N(C(C)C)C2COC2)C3)OC1 [Compound 48, 2-((4-(7-(((2S,5R)-5-(ethylsulfonamido)tetrahydro-2H-pyran-2-yl)methyl)-2,7-diazaspiro[3.5]nonan-2-yl)pyrimidin-5-yl)oxy)-5-fluoro-N-isopropyl-N-(oxetan-3-yl)benzamide]	> 7.30	> 9.00
CCS(=O)(=O)N[C@@H]1CC[C@@H](CN2CCC3(CC2)CN(c2ncncc2Oc2ccc(F)cc2C(=O)N(C(C)C)[C@H]2C[C@@H](O)C2)C3)OC1 [Compound 50, 2-((4-(7-(((2S,5R)-5-(ethylsulfonamido)tetrahydro-2H-pyran-2-yl)methyl)-2,7-diazaspiro[3.5]nonan-2-yl)pyrimidin-5-yl)oxy)-5-fluoro-N-((1s,3s)-3-hydroxycyclobutyl)-N-isopropylbenzamide]	> 7.30	> 9.00
COCCN(C(=O)c1cc(F)ccc1Oc1cncnc1N1CC2(CCN(C[C@@H]3CC[C@@H](NS(=O)(=O)C4CC4)CO3)CC2)C1)C(C)C [Compound 51, 2-((4-(7-(((2S,5R)-5-(cyclopropanesulfonamido)tetrahydro-2H-pyran-2-yl)methyl)-2,7-diazaspiro[3.5]nonan-2-yl)pyrimidin-5-yl)oxy)-5-fluoro-N-isopropyl-N-(2-methoxyethyl)benzamide]	> 7.30	–
CC(C)N(C)C(=O)c1cc(F)ccc1Oc1cncnc1N1CC2(CCN(C[C@@H]3CC[C@@H](NS(=O)(=O)c4ccn(C)n4)CO3)CC2)C1 [Compound 53, Fluoro-N-isopropyl-N-methyl-2-((4-(7-(((2S,5R)-5-((1-methyl-1H-pyrazole)-3-sulfonamido)tetrahydro-2H-pyran-2-yl)methyl)-2,7-diazaspiro[3.5]nonan-2-yl)pyrimidin-5-yl)oxy)benzamide]	–	> 9.00
Cc1nc(S(=O)(=O)N[C@@H]2CC[C@@H](CN3CCC4(CC3)CN(c3ncncc3Oc3ccc(F)cc3C(=O)N(C)C(C)C)C4)OC2)cs1 [Compound 54, 5-Fluoro-N-isopropyl-N-methyl-2-((4-(7-(((2S,5R)-5-((2-methylthiazole)-4-sulfonamido)tetrahydro-2H-pyran-2-yl)methyl)-2,7-diazaspiro[3.5]nonan-2-yl)pyrimidin-5-yl)oxy)benzamide]	–	> 9.00
CCN(C(=O)c1cc(F)ccc1Oc1cncnc1N1CC2(CCN(C[C@@H]3CC[C@@H](NS(=O)(=O)c4ccc(C)cc4)CO3)CC2)C1)C(C)C [Compound 55, N-Ethyl-5-fluoro-N-isopropyl-2-((4-(7-(((2S,5R)-5-((4-methylphenyl)sulfonamido)tetrahydro-2H-pyran-2-yl)methyl)-2,7-diazaspiro[3.5]nonan-2-yl)pyrimidin-5-yl)oxy)benzamide]	> 7.30	> 9.00
CCN(C(=O)c1cc(F)ccc1Oc1cncnc1N1CC2(CCN(C[C@@H]3CC[C@@H](NS(=O)(=O)c4ccccc4C)CO3)CC2)C1)C(C)C [Compound 56, N-Ethyl-5-fluoro-N-isopropyl-2-((4-(7-(((2S,5R)-5-((2-methylphenyl)sulfonamido)tetrahydro-2H-pyran-2-yl)methyl)-2,7-diazaspiro[3.5]nonan-2-yl)pyrimidin-5-yl)oxy)benzamide]	> 7.30	> 9.00
CCN(C(=O)c1cc(F)ccc1Oc1cncnc1N1CC2(CCN(C[C@@H]3CC[C@@H](NS(=O)(=O)c4cccc(Cl)c4)CO3)CC2)C1)C(C)C [Compound 57, 2-((4-(7-(((2S,5R)-5-((3-Chlorophenyl)sulfonamido)tetrahydro-2H-pyran-2-yl)methyl)-2,7-diazaspiro[3.5]nonan-2-yl)pyrimidin-5-yl)oxy)-N-ethyl-5-fluoro-N-isopropylbenzamide]	> 7.30	> 9.00
CCN(C(=O)c1cc(F)ccc1Oc1cncnc1N1CC2(CCN(C[C@@H]3CC[C@@H](NS(=O)(=O)c4cccc(C)c4)CO3)CC2)C1)C(C)C [Compound 60, N-ethyl-5-fluoro-N-isopropyl-2-((4-(7-(((2S,5R)-5-((3-methylphenyl)sulfonamido)tetrahydro-2H-pyran-2-yl)methyl)-2,7-diazaspiro[3.5]nonan-2-yl)pyrimidin-5-yl)oxy)benzamide]	> 7.30	> 9.00
CCN(C(=O)c1cc(F)ccc1Oc1cncnc1N1CC2(CCN(C[C@@H]3CC[C@@H](NS(=O)(=O)c4ccc(Cl)cc4)CO3)CC2)C1)C(C)C [Compound 61, 2-((4-(7-(((2S,5R)-5-((4-Chlorophenyl)sulfonamido)tetrahydro-2H-pyran-2-yl)methyl)-2,7-diazaspiro[3.5]nonan-2-yl)pyrimidin-5-yl)oxy)-N-ethyl-5-fluoro-N-isopropylbenzamide]	> 7.30	> 9.00
CCN(C(=O)c1cc(F)ccc1Oc1cncnc1N1CC2(CCN(C[C@@H]3CC[C@@H](NS(=O)(=O)C4CCOCC4)CO3)CC2)C1)C(C)C [Compound 67, N-Ethyl-5-fluoro-N-isopropyl-2-((4-(7-(((2S,5R)-5-((tetrahydro-2H-pyran)-4-sulfonamido)tetrahydro-2H-pyran-2-yl)methyl)-2,7-diazaspiro[3.5]nonan-2-yl)pyrimidin-5-yl)oxy)benzamide]	> 7.30	> 9.00
